Measurements taken from PubChem BioAssay AID1259411 (Chemical Carcinogenesis Research Information System (CCRIS), 2018).
Calls of active or inactive are those of the source. No rule for the calls is given here.

Test system: rodent carcinogenicity bioassays, tumor incidence
Experiment: CCRIS carcinogenicity studies
Conditions: Dose: 0, Dose: 0
Source text: The CCRIS database contains chemical records with carcinogenicity, mutagenicity, tumor promotion, and tumor inhibition test results. It was developed by the National Cancer Institute (NCI). Data are derived from studies cited in primary journals, current awareness tools, NCI reports, and other sources. Test results have been reviewed by experts in carcinogenesis and mutagenesis.
CCRIS provides historical information from the years 1985 - 2011. It is no longer updated.
This is an archive assay for CCRIS carcinogenicity studies.

## C1COCCN1
Species: RAT, Strain/Sex: SPRAGUE-DAWLEY/FEMALE, Route: INHALATION, 10, 50, 150 PPM 6 HR/D 5 D/WK FOR 104 WK (STUDY DURATION: 105 WK), 10, 50, 150 PPM 6 HR/D 5 D/WK FOR 104 WK (STUDY DURATION: 105 WK)
  carcinogen call: inactive; negative
Species: RAT, Strain/Sex: SPRAGUE-DAWLEY/MALE, Route: INHALATION, 10, 50, 150 PPM 6 HR/D 5 D/WK FOR 104 WK (STUDY DURATION: 105 WK), 10, 50, 150 PPM 6 HR/D 5 D/WK FOR 104 WK (STUDY DURATION: 105 WK)
  carcinogen call: inactive; negative

## Nc1ccc(Cc2ccc(N)cc2)cc1
Species: MOUSE, Strain/Sex: B6C3F1/FEMALE, Route: ORAL, 0.015, 0.03% IN DIET FOR 103 WK (STUDY DURATION: 104 WK), 0.015, 0.03% IN DIET FOR 103 WK (STUDY DURATION: 104 WK), Tumor Site: Type of Lesion: THYROID GLAND: FOLLICULAR ADENOMA, LIVER: HEPATOCELLULAR ADENOMA, LIVER: HEPATOCELLULAR CARCINOMA, Tumor Site: Type of Lesion: THYROID GLAND: FOLLICULAR ADENOMA, LIVER: HEPATOCELLULAR ADENOMA, LIVER: HEPATOCELLULAR CARCINOMA
  carcinogen call: active; positive
Species: MOUSE, Strain/Sex: B6C3F1/FEMALE, Route: ORAL, 150, 300 PPM IN DRINKING WATER, 150, 300 PPM IN DRINKING WATER, Tumor Site: Type of Lesion: THYROID GLAND: FOLLICULAR CELL ADENOMA, CARCINOMA, LIVER: HEPATOCELLULAR ADENOMA, CARCINOMA, LYMPHATIC SYSTEM: MALIGNANT, Tumor Site: Type of Lesion: THYROID GLAND: FOLLICULAR CELL ADENOMA, CARCINOMA, LIVER: HEPATOCELLULAR ADENOMA, CARCINOMA, LYMPHATIC SYSTEM: MALIGNANT
  carcinogen call: active; positive
Species: MOUSE, Strain/Sex: B6C3F1/MALE, Route: ORAL, 0.015, 0.03% IN DIET FOR 103 WK (STUDY DURATION: 104 WK), 0.015, 0.03% IN DIET FOR 103 WK (STUDY DURATION: 104 WK), Tumor Site: Type of Lesion: THYROID GLAND: FOLLICULAR ADENOMA, LIVER: HEPATOCELLULAR CARCINOMA
  carcinogen call: active; positive
Species: MOUSE, Strain/Sex: B6C3F1/MALE, Route: ORAL, 150, 300 PPM IN DRINKING WATER, 150, 300 PPM IN DRINKING WATER, Tumor Site: Type of Lesion: THYROID GLAND: FOLLICULAR CELL ADENOMA, ADRENAL GLAND: PHEOCHROMOCYTOMA, LIVER: HEPATOCELLULAR ADENOMA, CARCINOMA, Tumor Site: Type of Lesion: THYROID GLAND: FOLLICULAR CELL ADENOMA, ADRENAL GLAND: PHEOCHROMOCYTOMA, LIVER: HEPATOCELLULAR ADENOMA, CARCINOMA
  carcinogen call: active; positive
Species: RAT, Strain/Sex: F344/FEMALE, Route: ORAL, 0.015, 0.03% IN DIET FOR 103 WK (STUDY DURATION: 104 WK), 0.015, 0.03% IN DIET FOR 103 WK (STUDY DURATION: 104 WK), Tumor Site: Type of Lesion: THYROID GLAND: FOLLICULAR ADENOMA
  carcinogen call: active; positive
Species: RAT, Strain/Sex: F344/FEMALE, Route: ORAL, 150, 300 PPM IN DRINKING WATER, 150, 300 PPM IN DRINKING WATER, Tumor Site: Type of Lesion: THYROID GLAND: FOLLICULAR CELL ADENOMA, CARCINOMA, C CELL ADENOMA, CARCINOMA
  carcinogen call: active; positive
Species: RAT, Strain/Sex: F344/MALE, Route: ORAL, 0.15, 0.03% IN DIET FOR 103 WK (STUDY DURATION: 104 WK), 0.15, 0.03% IN DIET FOR 103 WK (STUDY DURATION: 104 WK), Tumor Site: Type of Lesion: THYROID GLAND: FOLLICULAR CARCINOMA, LIVER: NEOPLASTIC NODULE
  carcinogen call: active; positive
Species: RAT, Strain/Sex: F344/MALE, Route: ORAL, 150, 300 PPM IN DRINKING WATER, 150, 300 PPM IN DRINKING WATER, Tumor Site: Type of Lesion: THYROID GLAND: FOLLICULAR CELL ADENOMA, CARCINOMA, LIVER: NEOPLASTIC NODULE
  carcinogen call: active; positive

## Cc1c(N)nc(C(CC(N)=O)NCC(N)C(N)=O)nc1C(=O)NC(C(=O)NC(C)C(O)C(C)C(=O)NC(C(=O)NCCc1nc(-c2nc(C(=O)NCCC[S+](C)C)cs2)cs1)C(C)O)C(O[C@@H]1O[C@@H](CO)[C@@H](O)[C@H](O)[C@@H]1O[C@H]1O[C@H](CO)[C@@H](O)[C@H](OC(N)=O)[C@@H]1O)c1cnc[nH]1 (stereo not given in full)
Species: RAT, Strain/Sex: SPRAGUE-DAWLEY/FEMALE, Route: SUBCUTANEOUS, 0.35, 0.7, 1.40, 2.8 MG/KG IN SALINE 1/WK FOR 10 WK THEN 1/2 WK FOR 52 WK OR FOR LIFETIME (STUDY DURATION: 650 D), 0.35, 0.7, 1.40, 2.8 MG/KG IN SALINE 1/WK FOR 10 WK THEN 1/2 WK FOR 52 WK OR FOR LIFETIME (STUDY DURATION: 650 D), Tumor Site: Type of Lesion: KIDNEY: MALIGNANT OR BENIGN TUMOR, INJECTION SITE: MALIGNANT TUMOR
  carcinogen call: active; positive
Species: RAT, Strain/Sex: SPRAGUE-DAWLEY/MALE, Route: SUBCUTANEOUS, 0.35, 0.70, 1.40, 2.8 MG/KG IN SALINE 1/WK FOR 10 WK THEN 1/2 WK FOR 52 WK OR FOR LIFETIME (STUDY DURATION: 650 D), 0.35, 0.70, 1.40, 2.8 MG/KG IN SALINE 1/WK FOR 10 WK THEN 1/2 WK FOR 52 WK OR FOR LIFETIME (STUDY DURATION: 650 D), Tumor Site: Type of Lesion: KIDNEY: MALIGNANT OR BENIGN TUMOR, INJECTION SITE: MALIGNANT TUMOR
  carcinogen call: active; positive

## COC(=O)C(c1ccccc1)C1CCCCN1 (stereo not given)
Species: MOUSE, Strain/Sex: B6C3F1/FEMALE, Route: ORAL, 50, 250, 500 PPM IN DIET FOR 2 YR (STUDY DURATION: 2 YR), 50, 250, 500 PPM IN DIET FOR 2 YR (STUDY DURATION: 2 YR), Tumor Site: Type of Lesion: LIVER: HEPATOCELLULAR ADENOMA
  carcinogen call: active; positive
Species: MOUSE, Strain/Sex: B6C3F1/MALE, Route: ORAL, 50, 250, 500 PPM IN DIET FOR 2 YR (STUDY DURATION: 2 YR), 50, 250, 500 PPM IN DIET FOR 2 YR (STUDY DURATION: 2 YR), Tumor Site: Type of Lesion: LIVER: HEPATOCELLULAR ADENOMA, HEPATOBLASTOMA
  carcinogen call: active; positive
Species: RAT, Strain/Sex: F344/FEMALE, Route: ORAL, 100, 500, 1000 PPM IN DIET FOR 2 YR (STUDY DURATION: 2 YR), 100, 500, 1000 PPM IN DIET FOR 2 YR (STUDY DURATION: 2 YR)
  carcinogen call: inactive; negative
Species: RAT, Strain/Sex: F344/MALE, Route: ORAL, 100, 500, 1000 PPM IN DIET FOR 2 YR (STUDY DURATION: 2 YR), 100, 500, 1000 PPM IN DIET FOR 2 YR (STUDY DURATION: 2 YR)
  carcinogen call: inactive; negative

## Cl[C@@H]1C2(Cl)C3C4[C@@H]5O[C@@H]5[C@H]5C3[C@@](Cl)(C2(Cl)Cl)[C@]1(Cl)[C@@H]45 (stereo not given in full)
Species: MOUSE, Strain/Sex: B6C3F1/FEMALE, Route: ORAL, 0.32, 0.64 PPM IN DIET, 0.32, 0.64 PPM IN DIET
  carcinogen call: inactive; negative
Species: MOUSE, Strain/Sex: B6C3F1/MALE, Route: ORAL, 0.32, 0.64 PPM IN DIET, 0.32, 0.64 PPM IN DIET
  carcinogen call: inactive; negative
Species: RAT, Strain/Sex: OSBORNE-MENDEL/FEMALE, Route: ORAL, 3.4, 7.5 PPM IN DIET, TWA, 3.4, 7.5 PPM IN DIET, TWA
  carcinogen call: inactive; negative
Species: RAT, Strain/Sex: OSBORNE-MENDEL/MALE, Route: ORAL, 5, 10 PPM IN DIET, 5, 10 PPM IN DIET
  carcinogen call: inactive; negative
